Data set [1] relates to HaCaT. As to the kind of experiment: Inhibition of colony formation of human HaCaT cells. Type of data set: functional, cell-based.
Data set [2] in a line: Antiproliferative activity against NHEK cells incubated for 24 hrs by [3H]thymidine incorporation assay. It counts as functional, cell-based. Particulars: Homo sapiens.
Data set [3] has as its target T1, CYP11A1 (cholesterol side-chain cleavage enzyme, mitochondrial) (Bos taurus, UniProt P00189).
T1 sequence (P00189 whole entry): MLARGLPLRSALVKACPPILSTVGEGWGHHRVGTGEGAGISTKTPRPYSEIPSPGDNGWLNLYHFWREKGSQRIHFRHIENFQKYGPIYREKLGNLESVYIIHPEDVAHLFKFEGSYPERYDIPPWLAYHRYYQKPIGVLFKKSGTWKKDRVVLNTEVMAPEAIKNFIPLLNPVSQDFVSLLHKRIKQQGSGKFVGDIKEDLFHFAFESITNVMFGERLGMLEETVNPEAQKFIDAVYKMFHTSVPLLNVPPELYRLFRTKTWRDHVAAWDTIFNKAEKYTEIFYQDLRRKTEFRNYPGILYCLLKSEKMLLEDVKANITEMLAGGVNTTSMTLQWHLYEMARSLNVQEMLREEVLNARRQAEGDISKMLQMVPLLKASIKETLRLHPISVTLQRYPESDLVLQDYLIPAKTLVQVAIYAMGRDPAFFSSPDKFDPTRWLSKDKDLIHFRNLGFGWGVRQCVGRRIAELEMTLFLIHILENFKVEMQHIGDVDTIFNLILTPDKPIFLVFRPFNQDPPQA
The experiment in a line: Drug metabolism assessed as bovine CYP11A1-mediated compound metabolism after 2 mins incubation using compound loaded phospholipid vesicle by reverse phase HPLC. It counts as ADME. To be noted: cattle, bovine CYP11A1 with compound-loaded phospholipid vesicles; read-out: Drug metabolism.

A short description of data set [4]: Antiproliferative activity against NHEK cells assessed as cell proliferation incubated for 24 hrs by [3H]thymidine incorporation assay relative to untreated control.
Data set [5] deals with HEK293. As to the kind of experiment: Stimulation of cell proliferation of NHEK cells at 0.1 nM incubated for 24 hrs by [3H]thymidine incorporation assay. To be noted: Homo sapiens. It counts as functional, cell-based.

The results in this text go back to ChEMBL document CHEMBL2034926, “Design, synthesis, and biological action of 20R-hydroxyvitamin D3” (J Med Chem, 2012).

Active and inactive are the calls of the source. No cut-off for these calls is given here. Some results are limits rather than exact numbers.

Take `C=C1/C(=C\C=C2/CCC[C@]3(C)[C@@H]([C@H](C)CCCC(C)(C)O)CC[C@@H]23)C[C@@H](O)C[C@@H]1O`: the inhibition result in data set [1] is “Active”.

For `C=C1CC[C@H](O)C/C1=C/C=C1\CCC[C@@]2(C)[C@H]1CC[C@@H]2[C@@](C)(O)CCCC(C)C`, in data set [2], the midpoint of the response, the EC50, lay at 0.728 nM. Besides, the metabolised at 2 min in data set [3] came to 13%. Also, the inhibition result in data set [1] is “Active”. Further, the “level, % of control” value in data set [4] is less than 50%.

Consider `C=C1CC[C@H](O)C/C1=C/C=C1\CCC[C@]2(C)[C@@H]([C@H](C)CCCC(C)(C)O)CC[C@@H]12`, for which the inhibition entry in data set [1] is “inactive”.

Take `C=C1CC[C@H](O)C/C1=C/C=C1\CCC[C@@]2(C)[C@H]1CC[C@@H]2[C@](C)(O)CCCC(C)C`: the EC50 in data set [2] was determined as 4.09 nM. In data set [3], the metabolised at 2 min was found to be 58%. Also, in data set [5], the result was Active. Further, the “level, % of control” value in data set [4] was less than 50%.
